Laboratory results reported in PMC10999543, “Identification of kinase modulators as host-directed therapeutics against intracellular methicillin-resistant Staphylococcus aureus” (Frontiers in Cellular and Infection Microbiology, 2024).

Experiments:
[1] = system: intracellular MRSA in PMA-differentiated THP-1 cells; assay: Gentamicin protection assay with CFU count in MRSA-infected PMA-differentiated THP-1 cells; assay type: cell-based, Staphylococcus aureus; settings: 10 µM, n=6
Method: (§1) The cells were resuspended in cell culture medium without antibiotics, seeded with 10,000 cells/well into Costar flat-bottom 96-well plates (Corning, Amsterdam, the Netherlands), and were incubated overnight at 37°C/5% CO2. The next day, the bacteria were centrifuged at ≥1800 g for 15 min and resuspended in cold PBS + 5 mM ethylenediaminetetraacetic acid (EDTA). The number of CFUs present in the bacterial suspension was estimated from the optical density at 600 nm (OD600) by assuming 8x10^8 CFUs to be present in a bacterial suspension with OD600 = 1, based on prior titrations. The bacterial suspension was diluted in cell culture medium without antibiotics and added to the cells. Accuracy of the multiplicity of infection (MOI) was validated by plating serial dilutions of the MRSA inoculums on Difco TS agar plates (BD Biosciences). The calculated mean MOI throughout all experiments was 6.8 ± 4.6 (mean ± SD). Infected cells were centrifuged for 3 min at 150 g and incubated for 1 hour at 37°C/5% CO2. Next, the cells were incubated with fresh cell culture medium supplemented with 30 µg/ml gentamicin sulphate (Lonza BioWhittaker, Basel, Switzerland) for 15 min at 37°C/5% CO2 to kill residual extracellular bacteria. […]

[2] = system: intracellular MRSA in A549 cells; assay: Gentamicin protection assay with CFU count in MRSA-infected A549 cells; assay type: cell-based, Staphylococcus aureus; settings: 10 µM, n=7
Method: as §1

HeLa cells = assay type: cell-based, human; settings: for cytotoxicity / cell viability by LDH-release: 30 µM
Method: Before harvesting or lysing the cells of the intracellular infection assays, the supernatant from the cells was collected to quantify LDH release by the cells using the LDH cytotoxicity detection kit (Roche, Merck, Darmstadt, Germany) according to the manufacturer’s instructions. Triton X-100 results in maximum LDH release by permeabilizing the cells and was used as positive control. Quantification was performed with the EnVision plate reader.

[3] = system: intracellular MRSA in HeLa cells; assay: Gentamicin protection assay with CFU count in MRSA-infected HeLa cells; assay type: cell-based, Staphylococcus aureus; settings: for reduction of intracellular bacterial burden (CFU): validation of 17 hit compounds, Figure 2A; for reduction in bacterial burden (CFU): Figure 2B, n=17
How it was run: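 Cells infected with MRSA (mean MOI 6.8 ± 4.6) for 1 hour at 37°C, extracellular bacteria killed with 30 µg/ml gentamicin for 15 min, then overnight with kinase inhibitor plus 5 µg/ml gentamicin; DMSO as negative control. Cells lysed in water with 0.05% SDS, lysates serially diluted and plated for CFU; triplicate per compound.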

[4] = system: intracellular MRSA in MCF7 cells; assay: Gentamicin protection assay with CFU count in MRSA-infected MCF7 cells; assay type: cell-based, Staphylococcus aureus; settings: 10 µM, n=7
Method: The cells were resuspended in cell culture medium without antibiotics, seeded with 10,000 cells/well into Costar flat-bottom 96-well plates (Corning, Amsterdam, the Netherlands), and were incubated overnight at 37°C/5% CO2. The next day, the bacteria were centrifuged at ≥1800 g for 15 min and resuspended in cold PBS + 5 mM ethylenediaminetetraacetic acid (EDTA). The number of CFUs present in the bacterial suspension was estimated from the optical density at 600 nm (OD600) by assuming 8x10^8 CFUs to be present in a bacterial suspension with OD600 = 1, based on prior titrations. The bacterial suspension was diluted in cell culture medium without antibiotics and added to the cells. Accuracy of the multiplicity of infection (MOI) was validated by plating serial dilutions of the MRSA inoculums on Difco TS agar plates (BD Biosciences). The calculated mean MOI throughout all experiments was 6.8 ± 4.6 (mean ± SD). Infected cells were centrifuged for 3 min at 150 g and incubated for 1 hour at 37°C/5% CO2. Next, the cells were incubated with fresh cell culture medium supplemented with 30 µg/ml gentamicin sulphate (Lonza BioWhittaker, Basel, Switzerland) for 15 min at 37°C/5% CO2 to kill residual extracellular bacteria. Infected cells were incubated overnight at 37°C/5% CO2 in cell culture medium in the presence of kinase inhibitors and 5 µg/ml gentamicin sulphate-containing medium to prevent the growth of extracellular bacteria. The solvent of the compounds, DMSO, was used at equal % v/v as a negative control. For the screen, each compound was tested in triplicate, on separate cell culture plates, resulting in triplicate values for each kinase inhibitor.
Infected cells were lysed in sterile water + 0.05% UltraPure SDS solution (Invitrogen, ThermoFisher Scientific) to release intracellular bacteria. Bacterial suspensions and lysates of cells infected with MRSA were 5-fold serially diluted and 10-μl drops were plated on square TS agar plates. The plates were left to dry and incubated overnight at 37°C/5% CO2.

planktonic MRSA cultures = assay: Bacterial growth assay in cell-free planktonic MRSA cultures (OD600); assay type: cell-based, Staphylococcus aureus; settings: Supplementary Figure S5
Method: […] The absorbance was measured using an EnVision plate reader (PerkinElmer). The plates were incubated at 37°C overnight and the absorbance was measured again the next day. Real-time measurement of bioluminescence by the MRSA-lux strain was performed in a white flat-bottom 96-wells plate using a SpectraMax i3x plate reader and an integration time set at 9000 ms.

[5] = system: bioluminescent strain of MRSA; assay: Real-time bioluminescence of MRSA-lux after infection of HeLa cells; assay type: cell-based, Staphylococcus aureus; settings: 10 µM, infected HeLa cells
Method: The cells were resuspended in cell culture medium without antibiotics, seeded with 10,000 cells/well into Costar flat-bottom 96-well plates (Corning, Amsterdam, the Netherlands), and were incubated overnight at 37°C/5% CO2. The next day, the bacteria were centrifuged at ≥1800 g for 15 min and resuspended in cold PBS + 5 mM ethylenediaminetetraacetic acid (EDTA). The number of CFUs present in the bacterial suspension was estimated from the optical density at 600 nm (OD600) by assuming 8x10^8 CFUs to be present in a bacterial suspension with OD600 = 1, based on prior titrations. The bacterial suspension was diluted in cell culture medium without antibiotics and added to the cells. […] The calculated mean MOI throughout all experiments was 6.8 ± 4.6 (mean ± SD). […]
MRSA cultures at a concentration corresponding to an absorbance of 0.1 at 600 nm were incubated with the kinase inhibitors at 10 μM in flat-bottom 96-well plates. The absorbance was measured using an EnVision plate reader (PerkinElmer). The plates were incubated at 37°C overnight and the absorbance was measured again the next day. Real-time measurement of bioluminescence by the MRSA-lux strain was performed in a white flat-bottom 96-wells plate using a SpectraMax i3x plate reader and an integration time set at 9000 ms.

LC3 = assay: Autophagosome formation by western blot (LC3-II/LC3-I); assay type: cell-based, human; settings: MRSA-infected HeLa cells
Method: HeLa cells were seeded with 100,000 cells/well in 24-wells plates. In short, the cells were lysed in EBSB buffer (10% v/v glycerol, 3% SDS, 100 mM Tris-HCl, pH 6.8) supplemented with one tablet of cOmplete EDTA-free protease inhibitor cocktail (Sigma-Aldrich) and proteins were denaturated at 95°C for 5 min. Protein concentrations were determined using a Pierce™ BCA protein assay kit (Thermo Fisher Scientific). Samples were diluted in Laemmli sample buffer and loaded on a 15-well 4–20% Mini-PROTEAN® TGX™ Precast Protein Gel for electrophoresis (both from Bio-Rad, Hercules, CA, USA). […] Membranes were blocked for 1h in PBS supplemented with 5% w/v non-fat dry milk. Next, the membranes were cut and each protein was separately stained with primary antibodies against actin and LC3B in PBS supplemented with 5% w/v non-fat dry milk, or against AMPKα and AMPKα-pThr172 in PBS supplemented with 5% BSA (antibodies listed in Supplementary Table S1 ). Membranes were stained with secondary antibodies in PBS supplemented with 5% w/v non-fat dry milk. After each staining, membranes were washed four times in PBS + 0.1% Tween20. Prior to revelation, the membranes were incubated for 10 min in enhanced chemiluminescence (ECL) Prime Western Blotting System reagent (GE Healthcare, Hoevelaken, The Netherlands). […] Protein bands were quantified using Fiji software ([Schindelin et al., 2012]).

HER2 = system: HER2; design: method as in Elkins et al., 2016; settings: PKIS1, Caliper assay, ref Elkins et al., 2016; cited from earlier work

With `CC(C)c1nc(-c2cccc(NS(=O)(=O)c3c(F)cccc3F)c2F)c(-c2ccnc(Nc3ccc(N4CCOCC4)nc3)n2)s1` [GSK2008607A] the “effect on CFU counts” value [1] was “reductions in CFU counts”, the “activity on bacterial burden (CFU)” value [2] was “not active” and the “cytotoxicity / cell viability by LDH-release” value (from here on “cytotoxicity / cell viability”) (HeLa cells; MRSA-infected HeLa cells) was “became cytotoxic”. For the same molecule, the “reduction of intracellular bacterial burden (CFU)” value ([3]; 10 µM) was 56%, the “reduction in bacterial burden (CFU)” value ([3]; HeLa cells, 10 µM) was 72% and the “lowest concentration acting against intracellular MRSA (titration)” value ([3]; MRSA-infected HeLa cells) was 10 nM. The “reduction in bacterial burden (CFU)” value [4] was “reductions in CFU counts”.
In the case of `COc1ccc2[nH]c3c4[nH]c5ccc(OC)cc5c4c4c(c3c2c1)C(=O)NC4=O` [GW296115X], the “direct antibiotic effects against MRSA” value (planktonic MRSA cultures; planktonic cultures) is reported as “not the case”, the “cytotoxicity / cell viability” value (HeLa cells; MRSA-infected HeLa cells) is reported as “limited cytotoxicity” and the “cell viability of MRSA-infected cells” value (HeLa cells; HeLa cells, Figure 5K) is reported as “able to fully restore the loss in cell viability”. For the same molecule, the “cell viability of MRSA-infected cells (LDH-release)” value (HeLa cells; MRSA-infected HeLa cells, 10 µM, Figure 2G) was “rescued the loss of viability”, the “host cell viability when bafilomycin A1 is added” value (HeLa cells; MRSA-infected HeLa cells, combined with bafilomycin A1 (100 nM), Figure 5I) was “reverted” and the “reduction of intracellular bacterial burden (CFU)” value ([3]; 10 µM) was 67%. For the same molecule, the “reduction in bacterial burden (CFU)” value ([3]; HeLa cells, 10 µM) was 70%, the “bacterial killing when bafilomycin A1 is added” value ([3]; HeLa cells, combined with bafilomycin A1 (100 nM), Figure 5H) was “reverted” and the “reduction of the intracellular bacterial burden, maximal” value ([3]; MRSA-infected HeLa cells, titration) was “up to 80%”. For the same molecule, the Emax ([3]; Staphylococcus aureus, MRSA, HeLa) was -80%, the IC50 ([3]; Staphylococcus aureus, MRSA, HeLa, read-out: IC50 for reduction of intracellular bacterial burden) was 159 nM and the “reduction in bacterial burden (CFU)” value [4] was 75%. For the same molecule, the “effect on bioluminescent MRSA growth over time” value [5] was “acts rapidly”, the “accumulation of LC3-II” value (LC3; in the presence of bafilomycin A1 (100 nM)) was “strong accumulation of LC3-II” and the “formation of LC3-II” value (LC3; without bafilomycin) was “not affected”.
With `O=S(=O)(CCNCc1ccc(-c2ccc3ncnc(Nc4ccc(OCc5cccc(F)c5)c(Cl)c4)c3c2)o1)c1ccccc1` [GW633459A] the “effect on planktonic MRSA growth (direct antibiotic effect)” value (planktonic MRSA cultures; up to 100 µM concentration) was “not observe any direct antibacterial effects”, the “effect on CFU counts” value [1] was “reductions in CFU counts” and the “activity on bacterial burden (CFU)” value [2] was “not active”. The “cytotoxicity / cell viability” value (HeLa cells; MRSA-infected HeLa cells) was “only marginally affected”, the “% inhibition at 1 µM HER2” value (HER2) was 60% and the “CFU (% of DMSO) at 10 µM” value ([3]; 10 µM, MRSA-infected HeLa cells) was 41.2 % of DMSO. For the same molecule, the “reduction of intracellular bacterial burden (CFU)” value ([3]; 10 µM) was 59%, the “reduction in bacterial burden (CFU)” value ([3]; HeLa cells, 10 µM) was 50% and the “lowest concentration acting against intracellular MRSA (titration)” value ([3]; MRSA-infected HeLa cells) was 10 nM. The “reduction in bacterial burden (CFU)” value [4] was “reductions in CFU counts”.
